Results reported in patent US9630941B2 (priority 2008, dated 2017).
“Also recorded” adds a separate entry of the source.

How the values were obtained:
[1] = Aqueous solubility, pH dependent; type: physicochemical
[2] = In vivo ocular bioavailability of THC after topical formulations; settings: for concentration at 1 h: male, New Zealand albino, rabbit, topical
[3] = tested on: intraocular pressure (IOP) induced model of glaucoma; test: Rabbit glaucoma model, IOP lowering after topical instillation; settings: THC in Tocrisolve, 50 μL topical
[4] = Chemical stability pH dependent at 25° C.; type: physicochemical
Method: B. Chemical Stability pH Dependent at 25° C.

[5] = Plasma THC from HME buccal patches in swine model; type: in vivo; settings: swine
Method: THC was used as control formulation. Plasma was sampled from each animal at predetermined times and the amount of THC in the plasma was determined.
FIG. 20: Plasma THC concentrations as a function of time from THC-Val-HS loaded HME buccal patches. Data represents the mean value from 4 pigs. The animals were maintained under anesthesia for the first 4 hours and were then allowed to come out of anesthesia and given access to food and water.
A dose dependent plasma concentration time profile was then evaluated.
Plasma THC concentrations as a function of time and dose from THC-Val-HS loaded HME patches. Data represents the mean value. The animals for maintained under anesthesia for the first 4 hours and were then allowed to come out of anesthesia and given access to food and water.

[6] = Thermal stability, 120° C. for 10 min; type: physicochemical; settings: for CBN content of the sample after heating / Drug remaining / Drug remaining (%) / THC content of the sample after heating: 120° C. for 10 min; for Drug remaining (%): % of initial; for CBN content of the sample, initial / Initial, μg (drug itself) / THC content of the sample, initial: before heating
Method: C. Thermal Stability—120° C. for 10 min.

[7] = Control (IPBS) stability for the buccal homogenate study; type: physicochemical
Method: (§1) b. Porcine Buccal Tissue Homogenate Stability
(§2) Protein Concentration 2 mg/ml

[8] = Porcine buccal tissue homogenate stability; type: in vitro ADME; settings: protein concentration 2 mg/ml
Method: as §1, §2

[9] = Bioreversion: plasma stability, rabbit plasma; type: in vitro ADME
[10] = Bioreversion: plasma stability, porcine plasma; type: in vitro ADME

## CCCCCc1cc(O)c2c(c1)OC(C)(C)C1CCC(C)=CC21 (stereo not shown) [THC, Δ^9-Tetrahydrocannabinol, reference compound]
[1]; aqueous medium at pH 2, pH 2, aqueous buffer
  solubility: 0.95 µg/mL
[1]; aqueous medium at pH 3, pH 3, aqueous buffer
  solubility: 2.23 µg/mL
[1]; aqueous medium at pH 4, pH 4, aqueous buffer
  solubility: 1.27 µg/mL
[1]; aqueous medium at pH 5, pH 5, aqueous buffer
  solubility: 2.23 µg/mL
[1]; aqueous medium at pH 6, pH 6, aqueous buffer
  solubility: 2.23 µg/mL
[1]; aqueous medium at pH 7, pH 7, aqueous buffer
  solubility: 2.23 µg/mL
[1]; aqueous medium at pH 8, pH 8, aqueous buffer
  solubility: 2.23 µg/mL
[1]; aqueous medium, pH 3, aqueous buffer
  solubility: 2.23 µM
[1]; aqueous medium, pH 4, aqueous buffer
  solubility: 1.27 µM
[1]; aqueous medium, pH 5, aqueous buffer
  solubility: 2.23 µM
[1]; aqueous medium, pH 6, aqueous buffer
  solubility: 2.23 µM
[1]; aqueous medium, pH 7, aqueous buffer
  solubility: 2.23 µM
[1]; aqueous medium, pH 8, aqueous buffer
  solubility: 2.23 µM
[1]; pH 2, aqueous buffer
  solubility: 0.95 µM
[1]; water
  solubility: 2.23 µM
[1]; water, H20
  solubility: 2.23 µg/mL
[2]; 1 hour post topical application
  THC concentrations in aqueous humor, iris-ciliary bodies / anterior segment ocular tissues: not observed
[2]; cornea, 50 μL of 0.1% w/v THC
  concentration at 1 h: 1380 ng/g
[2]; cornea, 50 μL of 0.37% w/v THC
  concentration at 1 h: 6010 ng/g
[2]; sclera, 50 μL of 0.1% w/v THC
  concentration at 1 h: 416 ng/g
[2]; sclera, 50 μL of 0.37% w/v THC
  concentration at 1 h: 684 ng/g
[3]
  maximum observed effect, drop in IOP from baseline: 40%
  time for IOP to return to 90% of baseline: ≤ 2 h
  time to maximum effect post topical application: ≤ 30 min
[4]; Buffer pH 5.0, 25° C.
  First order rate constant: 0.017 h⁻¹
[4]; Buffer pH 7.0, 25° C.
  First order rate constant: 0.0098 h⁻¹
[5]; THC loaded HME patch
  Transbuccal systemic bioavailability of THC: no bioavailability; also recorded: extremely poor
[5]; buccal patch
  THC levels in plasma from transmucosal HME patches: No THC levels were detected
[6]
  Drug loading (%): 85.38 ± 7.25%
  CBN content of the sample after heating: 53.85 ± 1.60 µg
  Drug remaining: 1214.10 ± 39.12 µg
  Drug remaining (%): (95.05 ± 5.05) %
  CBN content of the sample, initial: 56.76 ± 4.86 µg
  Initial, μg (drug itself): 1280.70 ± 108.77 µg

## CCCCCc1cc(OC(=O)C(N)CC(C)C)c2c(c1)OC(C)(C)C1CCC(C)=CC21 (stereo not shown) [THC-Leucinate (8), Δ^9-THC-leucinate]
[7]
  K: 5.49 ± 0.46 ×10^−3 min^−1
[8]
  K: 22.98 ± 1.49 ×10^−3 min^−1
  T1/2: 30.21 ± 1.95 min
[1]; pH 1.2
  Aqueous Solubility: 9.36 ± 0.11 µg/mL
[1]; pH 1.2, listed as THC-Leucine
  Aqueous Solubility: 21.89 ± 0.26 µM
[1]; pH 2
  Aqueous Solubility: 23.71 ± 0.40 µg/mL
[1]; pH 2, listed as THC-Leucine
  Aqueous Solubility: 55.46 ± 0.93 µM
[1]; pH 3
  Aqueous Solubility: 5.17 ± 0.60 µg/mL
[1]; pH 3, listed as THC-Leucine
  Aqueous Solubility: 12.08 ± 1.40 µM
[1]; pH 4
  Aqueous Solubility: 1.95 ± 0.09 µg/mL
[1]; pH 4, listed as THC-Leucine
  Aqueous Solubility: 4.33 ± 0.20 µM
[1]; pH 5
  Aqueous Solubility: 0.23 ± 0.03 µg/mL
[1]; pH 5, listed as THC-Leucine
  Aqueous Solubility: 0.54 ± 0.06 µM
[1]; pH 6
  Aqueous Solubility: 0.08 ± 0.01 µg/mL
[1]; pH 6, listed as THC-Leucine
  Aqueous Solubility: 0.19 ± 0.02 µM
[9]
  K: 33.84 ± 10.92 ×10^−2 min^−1
  T1/2: 2.160 ± 0.697 min
[10]
  K: 42.70 ± 3.58 ×10^−2 min^−1
  T1/2: 1.629 ± 0.137 min
[4]; Buffer pH 5.0, 25° C.
  First order rate constant: 15.94 ± 3.38 ×10^−3 h^−1
[4]; Buffer pH 7.0, 25° C.
  First order rate constant: 85.91 ± 16.83 ×10^−3 h^−1
[4]; Buffer pH 9.0, 25° C.
  First order rate constant: 119.98 ± 33.51 ×10^−3 h^−1
[4]; Water, 25° C.
  First order rate constant: 8.51 ± 2.80 ×10^−3 h^−1
[6]
  Drug loading (%): 103.65 ± 4.12%
  CBN content of the sample after heating: 20.27 ± 0.43 µg
  Drug remaining: 1383.29 ± 40.73 µg
  THC content of the sample after heating: 25.86 ± 0.83 µg
  Drug remaining (%): (88.99 ± 0.92) %
  CBN content of the sample, initial: 16.34 ± 0.50 µg
  Initial, μg (drug itself): 1554.80 ± 61.76 µg
  THC content of the sample, initial: -6.13 ± 0.84 µg

## CCCCCc1cc(OC(=O)C(N)C(C)C)c2c(c1)OC(C)(C)C1CCC(C)=CC21 (stereo not shown) [THC-Valinate (6), Δ^9-THC-valinate]
[7]
  K: 3.66 ± 0.68 ×10^−3 min^−1
[8]
  K: 16 ± 0.19 ×10^−3 min^−1
  T1/2: 43.30 ± 0.51 min
[1]; H20
  Aqueous Solubility: 0.05 µg/mL
[1]; pH 1.2
  Aqueous Solubility: 32.16 ± 0.27 µg/mL
[1]; pH 1.2, listed as THC-Valine
  Aqueous Solubility: 78.23 ± 0.66 µM
[1]; pH 2
  Aqueous Solubility: 53.66 ± 10.30 µg/mL
[1]; pH 2, listed as THC-Valine
  Aqueous Solubility: 147.35 ± 24.90 µM
[1]; pH 3
  Aqueous Solubility: 28.76 ± 0.14 µg/mL
[1]; pH 3, listed as THC-Valine
  Aqueous Solubility: 69.78 ± 0.33 µM
[1]; pH 4
  Aqueous Solubility: 10.34 ± 0.53 µg/mL
[1]; pH 4, listed as THC-Valine
  Aqueous Solubility: 24.10 ± 1.28 µM
[1]; pH 5
  Aqueous Solubility: 1.27 ± 0.25 µg/mL
[1]; pH 5, listed as THC-Valine
  Aqueous Solubility: 3.51 ± 0.62 µM
[1]; pH 6
  Aqueous Solubility: 0.07 ± 0.00 µg/mL
[1]; pH 6, listed as THC-Valine
  Aqueous Solubility: 0.17 ± 0.00 µM
[9]
  K: 61.94 ± 6.01 ×10^−2 min^−1
  T1/2: 1.124 ± 0.109 min
[10]
  K: 91.16 ± 10.91 ×10^−2 min^−1
  T1/2: 0.766 ± 0.092 min
[4]; Buffer pH 5.0, 25° C.
  First order rate constant: 4.06 ± 0.01 ×10^−3 h^−1
[4]; Buffer pH 7.0, 25° C.
  First order rate constant: 47.13 ± 1.16 ×10^−3 h^−1
[4]; Buffer pH 9.0, 25° C.
  First order rate constant: 67.64 ± 7.67 ×10^−3 h^−1
[4]; Water, 25° C.
  First order rate constant: 23.70 ± 0.77 ×10^−3 h^−1
[6]
  Drug loading (%): 104.67 ± 2.22%
  CBN content of the sample after heating: 8.79 ± 2.43 µg
  Drug remaining: 1440.57 ± 46.34 µg
  THC content of the sample after heating: 74.35 ± 5.26 µg
  Drug remaining (%): (91.80 ± 4.90) %
  CBN content of the sample, initial: 8.27 ± 1.68 µg
  Initial, μg (drug itself): 1570.09 ± 33.27 µg
  THC content of the sample, initial: 61.91 ± 9.49 µg
